The source of these data is patent publication US20110306671A1, “AMIDE DERIVATIVES OF ETHACRYNIC ACID” (The Regents of the The University of California, priority 2008, published 2011).

For one test, the system named is LNCap. Kind of test: Cytotoxicity of EA in tumor cell line LNCap. It counts as cell-based. The following applies: Homo sapiens, mean of at least two experiments.
The next test has as its system HCT116. Description: Cytotoxicity of EA in tumor cell line HCT116. It counts as cell-based. Particulars: Homo sapiens, HCT-116, mean of at least two experiments.
A further test deals with SW480. Description: Cytotoxicity of EA in tumor cell line SW480. It counts as cell-based. Particulars: Homo sapiens, mean of at least two experiments.
The test system of the next test is HepG2. Kind of test: Cytotoxicity of EA in tumor cell line HepG2. The format is cell-based. Particulars: Homo sapiens, mean of at least two experiments.
For another test, the system named is RAMOS. Description: Cytotoxicity of EA in tumor cell line RAMOS. It counts as cell-based. Particulars: Homo sapiens, mean of at least two experiments.
The subject of test [1] is Wnt/β-catenin signaling. Description: TOPflash reporter assay in transfected HEK293 cells. The format is cell-based, human. (A reporter such as luciferase makes a cellular process visible.)
Test [2] deals with Wnt/β-catenin signaling. Kind of test: TOPflash reporter assay in SW480 cells. The following applies: 24 hours. The format is cell-based, human. The procedure:
FIG. 7. EA destabilizes the LEF-1/β-catenin complex. (A) SW480 cells were treated with increasing amounts of EA for 16 hours. Cells were lysed, and IP was completed with anti-β-catenin monoclonal antibody. The immune complexes were analyzed by immunoblotting with anti-LEF-1, anti-α-catenin and anti-β-catenin antibodies. (B) EA inhibits Wnt/β-catenin signaling in SW480 cells. SW480 cells were transfected with TOPflash reporter and control plasmid pCMXβgal. After transfection for 24 hours, cells were treated with increasing concentrations of EA for another 24 hours as indicated. Cells were then harvested and luciferase values were determined. The results are expressed as relative luciferase activity (%) normalized to a β-galactosidase control. For screening of the drug library, HEK293 cells were grown for at least 24 hours in 10 cm plates prior to transfection. At 50% confluence, cells were transfected with 5 μg of TOPflash reporter, 1 μg expression vector for Dvl, 1 μg of control plasmid pCMXβgal and carrier DNA pcDNA3 plasmid for a total of 10 μg/plate. After transfection for 24 hours, cells were harvested and dispersed in 96-well microtiter plates. […] Then luciferase values were determined. In the Results section, data are expressed as fold stimulation of luciferase activity compared to the basal level. […]

The test system of test [3] is LEF-1, cyclin D1 and fibronectin mRNA. Description: Real-time PCR of Wnt target genes in CLL cells. The format is cell-based, human. Particulars: CLL cells from three patients, 16 hours.
For the next test, the system named is Fzd5 mRNA. Description: Real-time PCR of Fzd5 in CLL cells. It counts as cell-based, human. Particulars: CLL cells from three patients, 16 hours.
The subject of test [4] is Primary CLL cells. Description: Cell apoptosis assay (DiOC6/PI flow cytometry) in primary CLL cells. The format is cell-based, human. The following applies: 3 μM EA; preliminary, data not shown. Background: Flow cytometry measures light scatter and fluorescence of single cells or particles in a stream.
Another test concerns CLL cells. Description: Levels of O2− or H2O2 in CLL cells treated with EA. Particulars: results not shown. The format is cell-based, human.
Test [5] has as its system lymphoma and myeloma cells. The following applies: Schmidt et al., 2009; cited from earlier work.
Test [6] relates to Primary CLL cells. Kind of test: Cell viability assay (MTT) with primary CLL cells. The following applies: 48 hours.

Each structure is given as a SMILES string.

Broadly, the IC50 is the concentration at which inhibition is half-maximal. The term EC50 denotes the concentration giving half of the maximal effect. In the case of `C=C(CC)C(=O)c1ccc(OCC(=O)O)c(Cl)c1Cl` [Compound 1, Ethacrynic acid], the concentration for half-maximal inhibition (IC50) in the test with LNCap amounted to 46 µM; in the test with HCT116, 58 µM; in the test with SW480, 68 µM; in the test with HepG2 it was 223 µM; in the test with RAMOS it was 174 µM; with Primary CLL cells [6] (read-out: IC50-EA, Primary CLL cells from nine patients, mean), 8.56 µM. Further, the “effect on Wnt1/LRP6 or Wnt3/LRP6, Dvl, and β-catenin-induced transcription” value in the test on Wnt/β-catenin signaling [1] (50 μM EA, 24 hours) was “reduced”. The “inhibition of TOPflash activity (drug library screen)” value with Wnt/β-catenin signaling [1] (Dvl-activated, generally at 10 μM and 50 μM, overnight) is listed as ≥ 30%. The “concentrations with dose-dependent inhibition of TOPflash activity” value in the test with Wnt/β-catenin signaling [2] is ≥ 60 µM. The “LEF-1, cyclin D1 and fibronectin mRNA expression” value in [3] is given as “decreased”. The Fzd5 expression entry with Fzd5 mRNA is “dose-dependent enhancement”. Further, the “effect on fludarabine-mediated apoptosis of CLL cells” value in the test on Primary CLL cells [4] is on record as “enhanced”. Besides, in the test with CLL cells, the “levels of O2− or H2O2 in CLL cells” value is reported as “no significant increase”. For the same molecule, in test [5], the induction of apoptosis entry is recorded as “significant induction of apoptosis”. The EC50 with Primary CLL cells [6] (read-out: CLL Inhibition EC50, CLL survival, MTT) is 9.9 µM.
